Experimental data from ChEMBL document CHEMBL4819035, “C-2-Linked Dimeric Strychnine Analogues as Bivalent Ligands Targeting Glycine Receptors” (J Nat Prod, 2021).

Columns and labels:
[1] = biological target: T1, Glycine receptor (alpha-1/beta) (Homo sapiens, UniProt P23415+P48167); assay: Antagonist activity at human glycine receptor subunit alpha-1beta expressed in human tsA201 cells assessed as reduction in glycine-induced response incubated for 30 mins by fluorescence-based FLIPR membrane potential blue assay; type: cell-based; details: for pIC50: tsa201
[2] = biological target: T2, Glycine receptor subunit alpha-1 (Homo sapiens, UniProt P23415); assay: Antagonist activity at human glycine receptor subunit alpha-1 expressed in HEK293 cells assessed as reduction in glycine-induced currents by whole-cell patch-clamp assay; type: cell-based
T2 sequence (P23415 whole entry): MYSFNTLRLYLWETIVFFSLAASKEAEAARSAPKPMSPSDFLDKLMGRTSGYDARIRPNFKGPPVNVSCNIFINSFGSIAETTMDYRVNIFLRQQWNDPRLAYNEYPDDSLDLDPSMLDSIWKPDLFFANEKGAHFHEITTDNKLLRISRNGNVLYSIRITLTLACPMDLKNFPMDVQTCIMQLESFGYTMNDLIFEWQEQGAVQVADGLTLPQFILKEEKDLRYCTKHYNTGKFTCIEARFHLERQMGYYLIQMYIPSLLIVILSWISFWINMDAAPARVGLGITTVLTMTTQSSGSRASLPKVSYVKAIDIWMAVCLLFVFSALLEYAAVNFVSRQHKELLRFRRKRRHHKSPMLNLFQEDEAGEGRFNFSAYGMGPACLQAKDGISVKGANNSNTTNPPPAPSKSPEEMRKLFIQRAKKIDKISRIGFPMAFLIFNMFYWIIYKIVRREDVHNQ

[3] = biological target: T2, Glycine receptor subunit alpha-1; assay: Antagonist activity at human glycine receptor subunit alpha-1 expressed in human tsA201 cells assessed as reduction in glycine-induced response incubated for 30 mins by fluorescence-based FLIPR membrane potential blue assay; type: cell-based
[4] = biological target: T2, Glycine receptor subunit alpha-1; assay: Antagonist activity at human glycine receptor subunit alpha-1 assessed as inhibition of glycine-induced current measured at the onset of compound application by patch-clamp assay
[5] = biological target: T2, Glycine receptor subunit alpha-1; assay: Displacement of [3H]strychnine from human glycine receptor subunit alpha-1 expressed in HEK293 cell membranes preincubated for 30 mins followed by [3H]strychnine addition and measured after 30 mins by liquid scintillation counting method; design: species or system Membrane
[6] = biological target: T2, Glycine receptor subunit alpha-1; assay: Antagonist activity at human glycine receptor subunit alpha-1 assessed as inhibition of glycine-induced current measured at the later state of compound application by patch-clamp assay
[7] = biological target: T1, Glycine receptor (alpha-1/beta); assay: Antagonist activity at human glycine receptor subunit alpha-1beta expressed in HEK293 cells assessed as reduction in glycine-induced currents by whole-cell patch-clamp assay; type: cell-based

T1 sequence (P48167 whole entry, one chain of several): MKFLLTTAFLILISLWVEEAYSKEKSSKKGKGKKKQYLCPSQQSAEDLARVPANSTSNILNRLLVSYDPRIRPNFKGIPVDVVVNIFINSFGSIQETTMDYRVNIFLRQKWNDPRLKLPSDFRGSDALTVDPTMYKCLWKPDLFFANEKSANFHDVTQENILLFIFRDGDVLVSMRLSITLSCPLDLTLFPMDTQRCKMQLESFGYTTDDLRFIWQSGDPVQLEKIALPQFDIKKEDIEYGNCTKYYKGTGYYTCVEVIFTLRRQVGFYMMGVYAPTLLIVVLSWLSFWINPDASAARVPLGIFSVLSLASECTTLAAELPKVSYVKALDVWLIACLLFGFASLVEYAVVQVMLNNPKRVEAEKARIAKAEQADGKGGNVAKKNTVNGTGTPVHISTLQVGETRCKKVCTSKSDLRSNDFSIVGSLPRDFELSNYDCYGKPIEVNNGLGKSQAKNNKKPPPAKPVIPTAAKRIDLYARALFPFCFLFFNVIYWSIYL

Compound | IC50 ([1]; read-out: IC50) [nM] | IC50 [2] [nM] | IC50 ([3]; read-out: IC50) [nM] | also measured
CCCCCCCC(=O)NCC(=O)Nc1ccc2c(c1)[C@@]13CCN4CC5=CCO[C@H]6CC(=O)N2[C@H]1[C@H]6[C@H]5C[C@H]43 | 510 | 90 | 780 | –
O=C(CCCCCC(=O)NCC(=O)Nc1ccc2c(c1)[C@@]13CCN4CC5=CCO[C@H]6CC(=O)N2[C@H]1[C@H]6[C@H]5C[C@H]43)NCC(=O)Nc1ccc2c(c1)[C@@]13CCN4CC5=CCO[C@H]6CC(=O)N2[C@H]1[C@H]6[C@H]5C[C@H]43 | 2200 | 130 | 2800 | IC50 ([3]; read-out: pIC50 (converted)): 2690 nM
O=C(CCOCCOCCOCCOCCOCCOCCOCCOCCOCCOCCOCCOCCC(=O)NCCCCC(=O)Nc1ccc2c(c1)[C@@]13CCN4CC5=CCO[C@H]6CC(=O)N2[C@H]1[C@H]6[C@H]5C[C@H]43)NCCCCC(=O)Nc1ccc2c(c1)[C@@]13CCN4CC5=CCO[C@H]6CC(=O)N2[C@H]1[C@H]6[C@H]5C[C@H]43 | 1800 | – | 4300 | IC50 [4]: 1340 nM; Ki [5]: 81 nM; IC50 [6]: 55 nM
O=C(CCCCCCCCCCCCC(=O)NCC(=O)Nc1ccc2c(c1)[C@@]13CCN4CC5=CCO[C@H]6CC(=O)N2[C@H]1[C@H]6[C@H]5C[C@H]43)NCC(=O)Nc1ccc2c(c1)[C@@]13CCN4CC5=CCO[C@H]6CC(=O)N2[C@H]1[C@H]6[C@H]5C[C@H]43 | 2000 | – | 1700 | –
CCCCCCCC(=O)Nc1ccc2c(c1)[C@@]13CCN4CC5=CCO[C@H]6CC(=O)N2[C@H]1[C@H]6[C@H]5C[C@H]43 | 680 | – | 1200 | –
O=C(CCCCC(=O)Nc1ccc2c(c1)[C@@]13CCN4CC5=CCO[C@H]6CC(=O)N2[C@H]1[C@H]6[C@H]5C[C@H]43)Nc1ccc2c(c1)[C@@]13CCN4CC5=CCO[C@H]6CC(=O)N2[C@H]1[C@H]6[C@H]5C[C@H]43 | 10000 | – | 6100 | –
O=C(CCCCCCCCCCC(=O)NCC(=O)Nc1ccc2c(c1)[C@@]13CCN4CC5=CCO[C@H]6CC(=O)N2[C@H]1[C@H]6[C@H]5C[C@H]43)NCC(=O)Nc1ccc2c(c1)[C@@]13CCN4CC5=CCO[C@H]6CC(=O)N2[C@H]1[C@H]6[C@H]5C[C@H]43 | 1900 | 100 | 2700 | –
O=C(CCOCCOCCOCCOCCOCCOCCOCCOCCOCCOCCOCCOCCC(=O)NCCCCCCCCCCC(=O)Nc1ccc2c(c1)[C@@]13CCN4CC5=CCO[C@H]6CC(=O)N2[C@H]1[C@H]6[C@H]5C[C@H]43)NCCCCCCCCCCC(=O)Nc1ccc2c(c1)[C@@]13CCN4CC5=CCO[C@H]6CC(=O)N2[C@H]1[C@H]6[C@H]5C[C@H]43 | 3900 | – | 10000 | IC50 [4]: 3310 nM; Ki [5]: 204 nM; IC50 [6]: 67 nM
O=C(CCCCCCCCCCC(=O)NCCCCCCCCCCC(=O)Nc1ccc2c(c1)[C@@]13CCN4CC5=CCO[C@H]6CC(=O)N2[C@H]1[C@H]6[C@H]5C[C@H]43)NCCCCCCCCCCC(=O)Nc1ccc2c(c1)[C@@]13CCN4CC5=CCO[C@H]6CC(=O)N2[C@H]1[C@H]6[C@H]5C[C@H]43 | 50000 | 3100 | 30000 | IC50 ([1]; read-out: pIC50 (converted)): 31600 nM
O=C(CCCCCCCCC(=O)NCC(=O)Nc1ccc2c(c1)[C@@]13CCN4CC5=CCO[C@H]6CC(=O)N2[C@H]1[C@H]6[C@H]5C[C@H]43)NCC(=O)Nc1ccc2c(c1)[C@@]13CCN4CC5=CCO[C@H]6CC(=O)N2[C@H]1[C@H]6[C@H]5C[C@H]43 | 880 | – | 730 | –
O=C(CCCCCCCCCCC(=O)Nc1ccc2c(c1)[C@@]13CCN4CC5=CCO[C@H]6CC(=O)N2[C@H]1[C@H]6[C@H]5C[C@H]43)Nc1ccc2c(c1)[C@@]13CCN4CC5=CCO[C@H]6CC(=O)N2[C@H]1[C@H]6[C@H]5C[C@H]43 | 1800 | 720 | 1100 | IC50 [7]: 800 nM
O=C(CCCCCCCC(=O)NCC(=O)Nc1ccc2c(c1)[C@@]13CCN4CC5=CCO[C@H]6CC(=O)N2[C@H]1[C@H]6[C@H]5C[C@H]43)NCC(=O)Nc1ccc2c(c1)[C@@]13CCN4CC5=CCO[C@H]6CC(=O)N2[C@H]1[C@H]6[C@H]5C[C@H]43 | 1700 | 400 | 2100 | –
O=C(CCCC(=O)Nc1ccc2c(c1)[C@@]13CCN4CC5=CCO[C@H]6CC(=O)N2[C@H]1[C@H]6[C@H]5C[C@H]43)Nc1ccc2c(c1)[C@@]13CCN4CC5=CCO[C@H]6CC(=O)N2[C@H]1[C@H]6[C@H]5C[C@H]43 | 30000 | – | 10000 | –
O=C(CCCCCCCCCCCCC(=O)Nc1ccc2c(c1)[C@@]13CCN4CC5=CCO[C@H]6CC(=O)N2[C@H]1[C@H]6[C@H]5C[C@H]43)Nc1ccc2c(c1)[C@@]13CCN4CC5=CCO[C@H]6CC(=O)N2[C@H]1[C@H]6[C@H]5C[C@H]43 | 210 | – | 430 | –
O=C(CCCCCCCCCCCCCCC(=O)NCC(=O)Nc1ccc2c(c1)[C@@]13CCN4CC5=CCO[C@H]6CC(=O)N2[C@H]1[C@H]6[C@H]5C[C@H]43)NCC(=O)Nc1ccc2c(c1)[C@@]13CCN4CC5=CCO[C@H]6CC(=O)N2[C@H]1[C@H]6[C@H]5C[C@H]43 | 2200 | – | 3200 | –
O=C(CCCCCCCCCCCCCCC(=O)NCCCCC(=O)Nc1ccc2c(c1)[C@@]13CCN4CC5=CCO[C@H]6CC(=O)N2[C@H]1[C@H]6[C@H]5C[C@H]43)NCCCCC(=O)Nc1ccc2c(c1)[C@@]13CCN4CC5=CCO[C@H]6CC(=O)N2[C@H]1[C@H]6[C@H]5C[C@H]43 | 4100 | – | 7900 | –
O=C(CCCCCCCCCCCCCCC(=O)NCCCCCCCCCCC(=O)Nc1ccc2c(c1)[C@@]13CCN4CC5=CCO[C@H]6CC(=O)N2[C@H]1[C@H]6[C@H]5C[C@H]43)NCCCCCCCCCCC(=O)Nc1ccc2c(c1)[C@@]13CCN4CC5=CCO[C@H]6CC(=O)N2[C@H]1[C@H]6[C@H]5C[C@H]43 | > 10000 | – | 10000 | pIC50 [1]: < 5
CCCCCCCC(=O)NCCCCCCCCCCC(=O)Nc1ccc2c(c1)[C@@]13CCN4CC5=CCO[C@H]6CC(=O)N2[C@H]1[C@H]6[C@H]5C[C@H]43 | 5800 | 1700 | 10000 | –
O=C(CCC(=O)Nc1ccc2c(c1)[C@@]13CCN4CC5=CCO[C@H]6CC(=O)N2[C@H]1[C@H]6[C@H]5C[C@H]43)Nc1ccc2c(c1)[C@@]13CCN4CC5=CCO[C@H]6CC(=O)N2[C@H]1[C@H]6[C@H]5C[C@H]43 | 10000 | – | 10000 | –
COCCOCCOCCOCCOCCOCCOCCOCCOCCOCCOCCOCCC(=O)NCCCCC(=O)Nc1ccc2c(c1)[C@@]13CCN4CC5=CCO[C@H]6CC(=O)N2[C@H]1[C@H]6[C@H]5C[C@H]43 | 10000 | – | 15000 | IC50 [4]: 852 nM; Ki [5]: 436 nM; IC50 [6]: 137 nM
COCCOCCOCCOCCOCCOCCOCCOCCOCCOCCOCCOCCC(=O)NCCCCCCCCCCC(=O)Nc1ccc2c(c1)[C@@]13CCN4CC5=CCO[C@H]6CC(=O)N2[C@H]1[C@H]6[C@H]5C[C@H]43 | 10000 | – | 20000 | IC50 [4]: 5720 nM; Ki [5]: 977 nM; IC50 [6]: 158 nM
O=C(CCCCCCC(=O)NCC(=O)Nc1ccc2c(c1)[C@@]13CCN4CC5=CCO[C@H]6CC(=O)N2[C@H]1[C@H]6[C@H]5C[C@H]43)NCC(=O)Nc1ccc2c(c1)[C@@]13CCN4CC5=CCO[C@H]6CC(=O)N2[C@H]1[C@H]6[C@H]5C[C@H]43 | 2400 | 170 | 2800 | –
O=C(CCCCCCC(=O)NCCCCCCCCCCC(=O)Nc1ccc2c(c1)[C@@]13CCN4CC5=CCO[C@H]6CC(=O)N2[C@H]1[C@H]6[C@H]5C[C@H]43)NCCCCCCCCCCC(=O)Nc1ccc2c(c1)[C@@]13CCN4CC5=CCO[C@H]6CC(=O)N2[C@H]1[C@H]6[C@H]5C[C@H]43 | 20000 | 1400 | 30000 | IC50 ([1]; read-out: pIC50 (converted)): 50100 nM
O=C(CCCCCCCCCCCCCCCCCCCCC(=O)NCCCCCCCCCCC(=O)Nc1ccc2c(c1)[C@@]13CCN4CC5=CCO[C@H]6CC(=O)N2[C@H]1[C@H]6[C@H]5C[C@H]43)NCCCCCCCCCCC(=O)Nc1ccc2c(c1)[C@@]13CCN4CC5=CCO[C@H]6CC(=O)N2[C@H]1[C@H]6[C@H]5C[C@H]43 | > 10000 | 2900 | > 10000 | pIC50 [1]: < 5; pIC50 ([3]; tsa201): < 5
